Laboratory results from US20250115595A1, “INHIBITORS OF HYPOXIA-INDUCIBLE FACTORS” (The Johns Hopkins University, priority 2021, published 2025).

Key:
STZ mice = test: STZ diabetic mouse model, intraperitoneal dosing; type: in vivo; details: 5 daily IP injections 40 mg/kg
Method: The ability of 32-143D to inhibit vascular permeability in diabetic patients was evaluated using the streptozotocin (STZ) model for diabetic macular edema. 8-to-10-week-old C57BL/6 mice were administered STZ by IP injection. Hyperglycemia (serum glucose >250 mg/dL) was confirmed by glucometer 2 weeks later. After 6 months of sustained hyperglycemia, mice were treated with 5 daily IP injections with 32-134D at 40 mg/kg or with vehicle control. 24 hours after the fifth IP injection, mice were euthanized, Evans blue perfusion was performed, and retina flat mounts were examined for vascular leakage.
Vascular permeability by Evans blue tracer method: Mice were anesthetized with a mixture of ketamine (50 mg/kg) and xylazine (5 mg/kg) and subjected to Evans blue (Sigma) (50 mg/kg) perfusion by penile vein injection. […] Images were captured by Zeiss fluorescent microscope or confocal microscopy and fluorescence quantified by image J software (NIH). […] Blinded quantification of the number of leaking vessels was performed by manual counting major leakage from capillaries from retinas of each group. Non-capillary artifactual Evans blue or FITC-dextran leakage due to flat mount processing as well as minor leakages were not included in the quantitation. […] Random fields were chosen from retinas where leakages were absent to determine baseline fluorescence that arise from capillaries. […]

VEGF and ANGPTL4 mRNA = test: mRNA expression in hypoxic MIO-M1 cells; type: cell-based, human; details: hypoxia, 10 μM
Method: (§1) It has previously been reported that the cells in the inner nuclear layer of the retina that express VEGF in response to hypoxia/ischemia are Müller glial cells (X. Xin et al., Proc Natl Acad Sci USA 110, E3425-3434 (2013)). […] The effects of 32-134D on HIF-1α accumulation persisted up to 16 hours after treatment of cultured cells (FIG. 27B).
Reverse transcription and quantitative real-time PCR: Total RNA was isolated from cultured cells or retinas with PureLink™ RNA Mini Kit (Invitrogen #12183025), and cDNA was prepared with MuLV Reverse Transcriptase (Applied Biosystems). Quantitative real-time PCR was performed with Power SYBR Green PCR Master Mix (Applied Biosystems) and MyiQ Real-Time PCR Detection System (Bio-Rad). Normalization was done using cyclophilin A for mouse tissue and human cell lines.

HIF-1α = biological target: T1, HIF-1α (Homo sapiens, UniProt Q16665); test: Immunoblot of HIF-1α accumulation in hypoxic MIO-M1 cells; type: cell-based
T1 construct: endogenous in cells; host or cells: MIO-M1 (immortalized human Müller glial cell line), hypoxia
Method: as §1
Pharmacokinetic analysis of 32-134D in the neurosensory retina following intraocular administration was determined by liquid chromatography and tandem mass spectrometry (LC-MS/MS) to quantify the concentration of 32-134D in retinal tissue over 14 days following a single 70-ng intraocular injection of 32-134D (see Methods of all parameters). […] The total exposure (area under the curve or AUClast) was 72.3 nmol*day/g.
Cells culture and reagents: MIO-M1 cells were a gift from Dr. Astrid Limb (University College London, Institute of Ophthalmology, London, United Kingdom). MIO-M1 and HUVEC cells were cultured in DMEM with 10% (vol/vol) FBS (Quality Biological) and 1% penicillin/streptomycin (Cellgro). Hypoxia chambers were used to expose cells. Evans Blue (E2129) was purchased from Sigma-Aldrich.
Immunoblot assays and ELISAs: Cell, neurosensory retina, and D120 retinal organoid lysates were subjected to 4-15% gradient SDS/PAGE (Invitrogen). […]

T1 sequence (Q16665 whole entry): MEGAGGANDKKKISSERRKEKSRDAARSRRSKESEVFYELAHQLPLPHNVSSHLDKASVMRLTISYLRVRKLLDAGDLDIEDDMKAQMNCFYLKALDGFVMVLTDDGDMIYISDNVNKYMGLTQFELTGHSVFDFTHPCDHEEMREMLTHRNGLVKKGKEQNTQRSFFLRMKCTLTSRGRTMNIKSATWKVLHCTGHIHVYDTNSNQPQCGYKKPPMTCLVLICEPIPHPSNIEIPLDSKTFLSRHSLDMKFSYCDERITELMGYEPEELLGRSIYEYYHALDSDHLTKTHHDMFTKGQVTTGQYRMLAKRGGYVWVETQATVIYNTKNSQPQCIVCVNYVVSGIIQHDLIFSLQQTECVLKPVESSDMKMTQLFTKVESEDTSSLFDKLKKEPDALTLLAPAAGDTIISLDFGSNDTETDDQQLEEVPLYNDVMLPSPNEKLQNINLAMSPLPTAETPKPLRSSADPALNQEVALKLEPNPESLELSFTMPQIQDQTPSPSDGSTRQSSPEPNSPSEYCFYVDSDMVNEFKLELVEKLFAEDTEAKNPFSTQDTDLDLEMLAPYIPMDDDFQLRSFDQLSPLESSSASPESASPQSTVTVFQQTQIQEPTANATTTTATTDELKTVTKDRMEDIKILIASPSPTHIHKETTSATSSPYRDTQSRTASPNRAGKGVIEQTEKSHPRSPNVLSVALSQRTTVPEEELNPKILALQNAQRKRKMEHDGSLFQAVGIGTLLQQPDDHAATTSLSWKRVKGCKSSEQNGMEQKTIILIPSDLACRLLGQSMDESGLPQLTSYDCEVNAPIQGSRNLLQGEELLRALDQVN

Brc1ccc2c(-c3csc(-c4c[nH]c5c(Br)cccc45)n3)c[nH]c2c1 [Compound 32-134D, 4-(6-bromo-1H-indol-3-yl)-2-(7-bromo-1H-indol-3-yl)thiazole]
vascular leakage (Evans blue fluorescence intensity) (STZ mice): significantly decreased vascular leakage | mRNA expression of VEGF and ANGPTL4 (VEGF and ANGPTL4 mRNA): potent inhibition | persistence of effect on HIF-1α accumulation after treatment (HIF-1α; 10 μM): up to 16 hours | IC50 (HIF-1α; hypoxia 4 hours, quantitation of immunoblots, read-out: IC50 of HIF-1α protein accumulation): 3.5 µM
